Assay results taken from patent US5348980A, “Enantiomers derived from (S)-2-amino-2-(3,4-dichlorobenzyl)-1-propanol, their use and method of preparation” (Institute de Recherche Jouveinal, priority 1992, dated 1994).
Where a name gives a salt, the structure may show the parent alone.

Tested on: bronchoconstriction caused by 100 nmol/kg of histamine
Assay: Histamine-induced bronchoconstriction test (Konzett and Rossler), intranasal-powder (In.P.) administration
Format: in vivo, guinea pigs
Source text: Furthermore, the antihistaminic properties were studied in guinea pigs by the bronchoconstriction test performed according to the method of H. Konzett and R. Rossler (Arch. Exp. Path. Pharmak.--Naunym Schmiedeberg - 195, 71-74, 1940). The products of the invention were studied in this test after administration in solution or in suspension via the intravenous and intraduodenal routes, and also in powder form via the intranasal route. Irrespective of the administration route, the preparation of the animals employed in the test consists in first anesthetizing male guinea pigs weighing 350 to 400 g by intraperitoneal (i.p.) injection of a sterile and isotonic solution containing 25% (w/v.) of ethyl carbamate on the basis of 6.0 ml/kg, and in then fitting the animals with a tracheal cannula to permit measurement of the pulmonary pressure, a cannula in the right jugular vein for the intravenous (i.v.) administration of solution, and also a cannula in the left carotid artery for qualitative observation of the blood pressure. The animals are then connected to a pump (Harvard, ref. 50-1718) in order to maintain an artificial ventilation at a frequency of 60 insufflations per minute; the intratracheal pressure is recorded by an assembly comprising a transducer, an amplifier and a recorder (Gould, respective refs.: PLOEZ, 13-4615-50 and 8188-[…]-06). Fitted in this way, the animals are left undisturbed for 10 minutes before the beginning of the actual experiment, which is carried out in different ways according to the administration route envisaged. c) intranasal-powder (In.p) administration The test product is administered via a nasal insufflation of a powder consisting of 20 mg of lactose loaded with the appropriate quantity of the test product. Before this insufflation, the artificial ventilation of the animal is momentarily stopped in order to facilitate the pulmonary penetration of the compound. […] Failing this expression, the results are expressed as a % change at the time in question and for a given concentration of the test product. […]

| Compound | ED50 (Cavia porcellus, 5 min, t = 5 min, read-out: ED50 at t = 5 min, inhibition of histamine-induced bronchoconstriction) [µmol/kg] | ED50 at t = 5 min, inhibition of histamine-induced bronchoconstriction [µmol/kg] |
| --- | --- | --- |
| C=CCN(C)[C@](C)(CO)Cc1ccc(Cl)c(Cl)c1 [Example 2, base, (S)-(+)-N-allyl-2-methylamino-2-(3,4-dichlorobenzyl)-1-propanol] | 1.28 |  |
| C=CCN(C)[C@](C)(CO)Cc1ccc(Cl)c(Cl)c1 [Example 2, hydrochloride, (S)-(+)-N-allyl-2-methylamino-2-(3,4-dichlorobenzyl)-1-propanol] |  | 1.77 |
